These results are taken from article PMC6370762, “Endogenous pore-forming protein complex targets acidic glycosphingolipids in lipid rafts to initiate endolysosome regulation” (Communications Biology, 2019).

pKd: −log10 of the molar value.

Chain of BmTFF3 (B2BRT2 21-166 limits assumed): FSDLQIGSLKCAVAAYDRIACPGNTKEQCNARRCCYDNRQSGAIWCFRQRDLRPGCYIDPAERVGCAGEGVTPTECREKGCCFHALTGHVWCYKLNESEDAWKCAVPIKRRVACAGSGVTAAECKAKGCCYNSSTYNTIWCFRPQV

In the first test the target is T1, βγ-CAT.
T1 construct: gene BmALP1
The settings on record: PBS pH 7.4, 37 °C; 1:1 global fit; gangliosides bind the BmALP1 subunit.
On to GM2, for which the pKd is 7.27. Same read-out and setting: the same measure for GD1a: 7.12. The substance GD3 had a pKd of 7.33. In turn, GM3 had a pKd of 7.99. Against the preceding substance, the pKd is 0.66 log units higher. The same measure, in the same setting: the same measure for GM1: 7.52. As to GT1b, the pKd is 6.28. In turn, GD1b had a pKd of 6.28. The same measure, in the same setting: for GM4 the value was 7.33.

The next test addresses BmTFF3 (Bombina maxima, UniProt B2BRT2). The conditions noted are these: PBS pH 7.4, 37 °C; 1:1 global fit; also bound on lipid overlay strips.
sulfatides: the pKd is around 7.21.

The next test has as its target T1, βγ-CAT. The conditions noted are these: PBS pH 7.4, 37 °C; 1:1 global fit; site on BmTFF3 subunit.
For the substance sulfatides, the negative logarithm of the Kd (pKd) was 7.18.
